Measured values reported in PMC10396955, “2-Oxabicyclo[2.1.1]hexanes as saturated bioisosteres of the ortho-substituted phenyl ring” (Nature Chemistry, 2023).
≈ marks a conversion by molar mass, not a printed value. Where two headings read alike, the source gives them in different places.

How the values were obtained:
[1] = physchem; assay type: physicochemical; conditions: for D (partition ratio), incubation 1 / D (partition ratio), incubation 2 / D (partition ratio), incubation 3: Table S2, n-octanol/PBS pH 7.4
Procedure: Determination of Distribution Coefficient (LogD, pH 7.4) […]
n-octanol – phosphate buffered saline (PBS), pH 7.4. Distribution coefficient (or LogD) is a […]
Phosphate buffered saline, tablet (Sigma-Aldrich, USA; Cat # P4417)
Acetic acid (Enamine, Ukraine.)
DMSO stock solutions of the test compounds 10mM
Gradient HPLC system (Shimadzu, Japan)
MTR22 Multi Mix Rotator (UNICO, USA)
Laboratory Centrifuge, Sigma 4-15C, Qiagen (SIGMA GmbH, Germany) […]
allowed to mix in a rotator for 1 h at 30 rpm. Phase separation was assured by centrifugation for […]
dilution. The samples (both phases) were analyzed using a HPLC system coupled with a tandem mass spectrometer. Mebendazole was used as a reference compound. […]
where: SO – peak area of the analyte in octanol phase
S P – peak area of the analyte in PBS buffer do – dilution coefficient for octanol phase dp – dilution coefficient for aqueous phase

[2] = tested on: human liver microsomes; test: Metabolic stability in human liver microsomes; assay type: in vitro ADME
Procedure: (§1) The data acquisition and system control was performed using Analyst 1.6.3 software from AB Sciex. Methods Microsomal incubations were carried out in 96-well plates in 5 aliquots of 30 μL each (one for each time point). […] In the control reactions the NADPH-cofactor system was substituted with phosphate buffer. […] Each reaction was performed in duplicates. Five time points over 40 minutes were analyzed. The reactions were stopped by adding 4 volumes of methanol containing internal standard to incubation aliquots, followed by protein sedimentation by centrifuging at 5500 rpm for 4 minutes. […]. Supernatants were analyzed using the HPLC system coupled with tandem mass spectrometer. […] In some cases, the last time point is excluded from the calculations to ensure acceptable logarithmic linearity of decay.

[3] = Metabolic stability in human liver microsomes; assay type: in vitro ADME; conditions: both sexes
Procedure: as §1

[4] = tested on: Fusarium verticillioides; test: Antifungal susceptibility testing (MIC, CLSI M38-A2 microdilution); assay type: cell-based
Procedure: (§2) page 252: Antifungal susceptibility testing (determination of MIC values) The antifungal susceptibility tests were performed according to the Clinical and Laboratory Standards Institute (CLSI) […]-A2 protocol for mycelial fungi (1). Stock solutions were prepared by dissolving an appropriate amount of testing compounds in DMSO. Solutions of test compounds were added to the wells of a 96-well polystyrene microtiter plate (Colstar, USA) in the concentration range from 0.5 to 0.001 mg/mL. Mycelium growth was monitored photometrically at 490 nm by measuring the optical density of each well. Measurements were carried out two times: immediately after adding all components (RPMI 1640 broth, conidial suspension, test compound solutions) and after incubation plate at 26 °C for 48 h (2). MICs were the lowest testing compound concentrations that produced partial growth inhibition (50% of optical density relative to the control without testing compounds). The tests were performed in triplicate Results : Table S6. The MIC values of Fluxapyroxad , Boscalid , and their saturated analogues against Fusarium oxysporum , and Fusarium verticillioides Antifungal compaunds MIC, mg/mL Fusarium oxysporum Fusarium verticillioides Fluxapyroxad -* 0.250 Analogue (±)- 28 0.125 0.125 […] of 0.063 mg/mL. […]

[5] = tested on: Fusarium oxysporum; test: as above; assay type: cell-based
Procedure: as §2

[6] = pH 7.4, LogD, pH 7.4, incubation 1
[7] = pH 7.4, LogD, pH 7.4, incubation 2
[8] = pH 7.4, LogD, pH 7.4, incubation 3
[9] = human, microsomes, pH 7.4, % Remaining without cofactor, Mean of 2
[10] = human, microsomes, pH 7.4, % Remaining, Mean of 2
[11] = human, microsomes, pH 7.4, Clint
[12] = human, microsomes, pH 7.4, t1/2
[13] = Fusarium verticillioides, 48 h, Table S6, lowest concentration giving 50% of optical density relative to control, 26 °C, 48 h, read-out: MIC
[14] = Fusarium verticillioides, Fig. 4e, read-out: MIC
[15] = human, liver microsomes, pH 7.4, human liver microsomes, 2 μM, 37 °C, with NADPH, 7 min
[16] = human, liver microsomes, pH 7.4, human liver microsomes, 2 μM, 37 °C, with NADPH, 15 min
[17] = human, liver microsomes, pH 7.4, human liver microsomes, 2 μM, 37 °C, with NADPH, 25 min, read-out: % Remaining, Mean of 2
[18] = human, liver microsomes, pH 7.4, human liver microsomes, 2 μM, 37 °C, with NADPH, 40 min, read-out: % Remaining, Mean of 2
[19] = human, liver microsomes, pH 7.4, human liver microsomes, 0.42 mg protein per ml, Table S3, * approximate due to high stability, read-out: Clint
[20] = human, liver microsomes, pH 7.4, human liver microsomes, * approximate due to high stability, read-out: t1/2
[21] = pH 7.4, human liver microsomes, no NADPH cofactor, 40 min, ** instability partially or completely not determined by CYP450 activity, read-out: % Remaining without cofactor, Mean of 2
[22] = pH 7.4, human liver microsomes, elimination constant, * approximate due to high stability, read-out: kel (converted)
[23] = Table S6, lowest concentration giving 50% of optical density relative to control, 26 °C, 48 h

Row | SMILES | D (partition ratio), incubation 1 [1] | D (partition ratio), incubation 2 [1] | D (partition ratio), incubation 3 [1] | logD at 1 h ([1]; pH 7.4, LogD, pH 7.4 (mean)) | logD at 1 h [1, 6] | logD at 1 h [1, 7] | logD at 1 h [1, 8] | logD at 1 h ([1]; pH 7.4, logD (7.4)) | MIC [4, 13] | MIC [4, 14] | CIint, intrinsic clearance ([2]; human liver microsomes) | remaining at […], 2 µM [3, 15] | remaining at […], 2 µM [3, 16] | remaining at 25 min, 2 µM [3, 17] | remaining at 40 min, 2 µM [3, 18] | microsomal CLint at 2 µM [3, 19] | half-life at 2 µM [3, 20] | remaining at 40 min, 2 µM [3, 21] | MIC ([5]; Fig. 4e) | MIC [5, 23] | further results
1 | Cn1cc(C(=O)N[C@@H]2[C@@H]3CC[C@@]2(c2cc(F)c(F)c(F)c2)C3)c(C(F)F)n1 (relative stereo) [Compound 28] | 3.24E+04 | 2.00E+04 | 1.32E+04 | 4.32 | 4.51 |  | 4.12 | 4.3 | 125 mg/L (≈ 324 µM) | 125 mg/L (≈ 324 µM) | 35 µL/min/mg | 78% | 72% | 57% | 55% | 35 µL/min/mg | 0.79 h | 99% | 125 mg/L (≈ 324 µM) | 125 mg/L (≈ 324 µM) | k el at 2 µM [3, 22]: 0.00025 s⁻¹
2 | O=C(Nc1ccccc1-c1ccc(Cl)cc1)c1cccnc1Cl [Boscalid, reference compound] | 3.62E+03 | 2.86E+03 | 4.07E+03 | 3.55 | 3.56 | 3.46 | 3.61 | 3.6 |  |  |  |  |  |  |  |  |  |  | 250 mg/L (≈ 728 µM) | 250 mg/L (≈ 728 µM) | CIint, intrinsic clearance ([2]; human, microsomes): 26 µL/min/mg; remaining at 40 min, 2 µM [3, 9]: 59%; remaining at 25 min, 2 µM [3, 10]: 75%; remaining at 40 min, 2 µM [3, 10]: 66%; microsomal CLint at 2 µM [3, 11]: 26 µL/min/mg; half-life at 2 µM [3, 12]: 1.06 h; k el at 2 µM ([3]; human, pH 7.4): 0.000183 s⁻¹; inhibition at 63 µg/mL ([4]; Fusarium verticillioides, at a concentration of 0.063 mg/mL, MIC not reached, read-out: Maximal inhibition of growth): 39.2 ± 2.7%
3 | Cn1cc(C(=O)N[C@@H]2[C@H]3C[C@]2(c2cc(F)c(F)c(F)c2)CO3)c(C(F)F)n1 (relative stereo) [Compound 29] | 5.70E+02 | 6.13E+02 | 5.77E+02 | 2.77 | 2.76 | 2.79 | 2.76 | 2.8 | 250 mg/L (≈ 645 µM) | 250 mg/L (≈ 645 µM) | 23 µL/min/mg | 106% | 93% | 83% | 72% | 23 µL/min/mg | 1.22 h | 89% |  |  | k el at 2 µM [3, 22]: 0.00015 s⁻¹; inhibition at 125 µg/mL ([5]; at a concentration of 0.125 mg/mL, MIC not reached, read-out: Maximal inhibition of growth): 35.7 ± 2.4%

Continued, in another order:

Row | D (partition ratio), incubation 1 [1] | D (partition ratio), incubation 2 [1] | D (partition ratio), incubation 3 [1] | logD at 1 h ([1]; pH 7.4, LogD, pH 7.4 (mean)) | logD at 1 h [1, 6] | logD at 1 h [1, 7] | logD at 1 h [1, 8] | logD at 1 h ([1]; pH 7.4, logD (7.4)) | MIC [4, 13] | MIC [4, 14] | CIint, intrinsic clearance ([2]; human liver microsomes) | remaining at […], 2 µM [3, 15] | remaining at […], 2 µM [3, 16] | remaining at 25 min, 2 µM [3, 17] | remaining at 40 min, 2 µM [3, 18] | microsomal CLint at 2 µM [3, 19] | half-life at 2 µM [3, 20] | remaining at 40 min, 2 µM [3, 21] | MIC ([5]; Fig. 4e) | MIC [5, 23] | SMILES | further results
4 | 3.37E+03 | 2.99E+03 | 3.24E+03 | 3.51 | 3.53 | 3.48 | 3.51 | 3.5 | 250 mg/L (≈ 656 µM) | 250 mg/L (≈ 656 µM) |  |  |  |  |  |  |  |  |  |  | Cn1cc(C(=O)Nc2ccccc2-c2cc(F)c(F)c(F)c2)c(C(F)F)n1 [Fluxapyroxad, reference compound] | CIint, intrinsic clearance ([2]; human, microsomes): 28 µL/min/mg; remaining at 40 min, 2 µM [3, 9]: 79%; remaining at 25 min, 2 µM [3, 10]: 73%; remaining at 40 min, 2 µM [3, 10]: 63%; microsomal CLint at 2 µM [3, 11]: 28 µL/min/mg; half-life at 2 µM [3, 12]: 0.983 h; k el at 2 µM ([3]; human, pH 7.4): 0.0002 s⁻¹; inhibition at 31 µg/mL ([5]; at a concentration of 0.031 mg/mL, MIC not reached, read-out: Maximal inhibition of growth): 38 ± 1.9%
5 | 4.87E+02 | 3.16E+02 | 6.11E+02 | 2.66 | 2.69 | 2.5 | 2.79 | 3.5 ± 0.1 | 31 mg/L (≈ 89.3 µM) |  | 12 µL/min/mg | 94% | 95% | 90% | 80% | 12 µL/min/mg | 2.31 h | 71% | 31 mg/L (≈ 89.3 µM) | 31 mg/L (≈ 89.3 µM) | O=C(N[C@@H]1[C@@H]2CC[C@@]1(c1ccc(Cl)cc1)C2)c1cccnc1Cl (relative stereo) [Compound 30] | k el at 2 µM [3, 22]: 8.33e-05 s⁻¹; MIC ([4]; Fig. 4e): 0.031 mg ml^–1
6 | 3.05E+03 | 3.16E+03 | 3.13E+03 | 3.5 | 3.48 | 3.5 | 3.5 | 2.7 ± 0.2 |  |  | 3 µL/min/mg | 107% | 110% | 107% | 108% | ~3 µL/min/mg | ~8.09 h | 85% | 250 mg/L (≈ 716 µM) | 250 mg/L (≈ 716 µM) | O=C(N[C@@H]1[C@H]2C[C@]1(c1ccc(Cl)cc1)CO2)c1cccnc1Cl (relative stereo) [Compound 31] | microsomal CLint at 2 µM ([3]; human, liver microsomes, pH 7.4, human liver microsomes, Fig. 3, read-out: CIint, intrinsic clearance): 3 µL/min/mg; inhibition at 250 µg/mL ([4]; Fusarium verticillioides, read-out: Maximal inhibition of growth): 36.3 ± 1.9%; melting point: 147 to 148 °C
